Counter-ions that a name gives are not always drawn.
Biological target: Stromelysin (Homo sapiens, UniProt P08254)
Experiment: MMP inhibition, particle concentration fluorescence assay
Type: biochemical
Details: in vitro; fluorescein/biotin substrate; MMP buffer pH 7.5; room temperature
Experimental: Inhibitory activity is evaluated in one or more of the MMP enzymes (stromelysin, gelatinase, and collagenase) in vitro using particle concentration fluorescence assay. An inhibitor binds to MMP enzymes which prevents the degradation of a substrate by stromelysin, gelatinase, or collagenase. The substrate has attached to it a fluorescein and a biotin moiety. The intact substrate then binds to an avidin-coated particle via the biotin moiety. Once the particle is washed and dried, a fluorescent signal is generated since the fluorescent group is attached to the particle. Without an inhibitor present, the substrate is degraded by MMP enzymes and the fluorescein group is removed, therefore, no fluorescent signal can be detected. Testing compounds are dissolved in DMSO to the desired concentration, then the solutions are diluted to 1:5 with MMP buffer (50 mM Tris-HCl, pH 7.5; 150 mM NaCl; 0.02% NaN3). Serial two-fold dilutions of each compound are prepared. A concentrated, activated enzyme solution is transferred into each plate of the testing compounds, and the mixture is incubated at room temperature for 15 minutes. […] At this point, the substrate mixture is mixed with 0.1% avidin-coated polystyrene particles. After 15 minutes, the fluorescence values are measured following filtration and washing of the beads. Ki values are then calculated.

Chain of Stromelysin (P08254 100-477): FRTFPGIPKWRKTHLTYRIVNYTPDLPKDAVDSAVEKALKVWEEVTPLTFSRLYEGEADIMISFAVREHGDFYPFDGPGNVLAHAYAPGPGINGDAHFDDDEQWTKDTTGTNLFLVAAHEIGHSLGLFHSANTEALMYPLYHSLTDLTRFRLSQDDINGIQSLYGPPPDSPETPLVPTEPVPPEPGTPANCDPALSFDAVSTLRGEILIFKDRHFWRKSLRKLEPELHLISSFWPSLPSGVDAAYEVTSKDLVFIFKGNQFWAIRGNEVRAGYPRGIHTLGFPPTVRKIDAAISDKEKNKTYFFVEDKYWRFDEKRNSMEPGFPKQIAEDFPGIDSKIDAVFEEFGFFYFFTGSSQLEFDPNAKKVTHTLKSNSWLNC

SMILES	Ki [µM]
CNC(=O)[C@H](Cc1c[nH]c2ccccc12)NC(=O)Nc1n[nH]c(=S)s1 [Example 13, α-[[[(4,5-Dihydro-5-thioxo-1,3,4-thiadiazol-2-yl)amino]carbonyl]-amino]-N-methyl-(S)-1H-indole-3-propanamide]	2.5
O=C(Nc1n[nH]c(=S)s1)N[C@@H](Cc1ccc([N+](=O)[O-])cc1)C(=O)NCCc1ccccc1 [Example 34, α-[[[(4,5-Dihydro-5-thioxo-1,3,4-thiadiazol-2-yl)amino]carbonyl]amino]-4-nitro-N-(2-phenylethyl)-(S)-benzenepropanamide]	0.21
CC(C)(C)c1ccc(CNC(=O)[C@H](Cc2ccccc2)NC(=O)Nc2n[nH]c(=S)s2)cc1 [Example 54, α-[[[(4,5-Dihydro-5-thioxo-1,3,4-thiadiazol-2-yl)amino]-carbonyl]amino]-N-[[4-(1,1-dimethylethyl)phenyl]methyl]-(S)-benzenepropanamide]	1.74
O=C(Nc1n[nH]c(=S)s1)N[C@@H](Cc1ccccc1)C(=O)NCCCO [Example 41, α-[[[(4,5-Dihydro-5-thioxo-1,3,4-thiadiazol-2-yl)amino]-carbonyl]amino]-N-(3-hydroxypropyl)-(S)-benzenepropanamide]	1.12
O=C(Nc1n[nH]c(=S)s1)N[C@@H](Cc1ccccc1)C(=O)NCc1cccnc1 [Example 18, α-[[[(4,5-Dihydro-5-thioxo-1,3,4-thiadiazol-2-yl)amino]carbonyl]-amino]-N-(3-pyridinylmethyl)-(S)-benzenepropanamide]	2.01
O=C(O)CCNC(=O)[C@H](Cc1ccccc1)NC(=O)Nc1n[nH]c(=S)s1 [Example 44]	1.08
O=C(Nc1n[nH]c(=S)s1)N[C@@H](CC1CCCCC1)C(=O)NCCc1ccccc1 [Example 62, α-[[[(4,5-Dihydro-5-thioxo-1,3,4-thiadiazol-2-yl)amino]carbonyl]amino]-N-(2-phenylethyl)-(S)-cyclohexanepropanamide]	0.65
CNC(=O)[C@H](CSCc1ccccc1)NC(=O)Nc1n[nH]c(=S)s1 [Example 72, 2-[[[(4,5-Dihydro-5-thioxo-1,3,4-thiadiazol-2-yl)amino]carbonyl]-amino]-N-methyl-3-[(phenylmethyl)thio]-(R)-propanamide]	1.05
O=C(Nc1n[nH]c(=S)s1)N[C@@H](Cc1ccccc1)C(=O)NCCc1ccccc1 [Example 6, α-[[[(4,5-Dihydro-5-thioxo-1,3,4-thiadiazol-2-yl)amino]carbonyl]-amino]-N-(2-phenylethyl)-(S)-benzenepropanamide]	0.3
O=C(Nc1n[nH]c(=S)s1)N[C@@H](Cc1ccccc1)C(=O)NCCCCc1ccccc1 [Example 37, aα-[[[(4,5-Dihydro-5-thioxo-1,3,4-thiadiazol-2-yl)amino]carbonyl]amino]-N-(4-phenylbutyl)-(S)-benzenepropanamide]	0.82
O=C(Nc1n[nH]c(=S)s1)N[C@@H](Cc1ccccc1)C(=O)N1CCN(C(c2ccccc2)c2ccccc2)CC1 [Example 55, (S)-1-[2-[[[(4,5-Dihydro-5-thioxo-1,3,4-thiadiazol-2-yl)amino]carbonyl]amino]-1-oxo-3-phenylpropyl]-4-(benzhydryl)piperazine]	4.25
CCCCNC(=O)[C@H](Cc1ccc([N+](=O)[O-])cc1)NC(=O)Nc1n[nH]c(=S)s1 [Example 35, N-Butyl-α-[[[(4,5-dihydro-5-thioxo-1,3,4-thiadiazol-2-yl)amino]carbonyl]amino]-4-nitro-(S)-benzenepropanamide]	0.35
COC(=O)[C@H](CO[Si](C)(C)C(C)(C)C)NC(=O)Nc1n[nH]c(=S)s1 [Example 45, N-[[(4,5-Dihydro-5-thioxo-1,3,4-thiadiazol-2-yl)amino]carbonyl]-O-[(1,1-dimethylethyl)dimethylsilyl]-L-serine methyl ester]	1.53
O=C(Nc1n[nH]c(=S)s1)N[C@@H](Cc1ccccc1)C(=O)N1CCN(c2ccccc2)CC1 [Example 50, (S)-1-[2-[[[(4,5-Dihydro-5-thioxo-1,3,4-thiadiazol-2-yl)amino]carbonyl]amino]-1-oxo-3-phenylpropyl]-4-phenylpiperazine]	1.68
CCOC(=O)CCNC(=O)[C@H](Cc1ccccc1)NC(=O)Nc1n[nH]c(=S)s1 [Example 42, N-[[(4,5-Dihydro-5-thioxo-1,3,4-thiadiazol-2-yl)amino]carbonyl]-L-phenylalanyl-β-alanine ethyl ester]	0.78
COC(=O)[C@H](Cc1ccc(C(C)(C)C)cc1)NC(=O)Nc1n[nH]c(=S)s1 [Example 80, N-[[(4,5-Dihydro-5-thioxo-1,3,4-thiadiazol-2-yl)amino]carbonyl]-4-(1,1-dimethylethyl)-L-phenylalanine methyl ester]	0.8
COC(=O)[C@H](Cc1ccc([N+](=O)[O-])cc1)NC(=O)Nc1n[nH]c(=S)s1 [Example 32, N-[[(4,5-Dihydro-5-thioxo-1,3,4-thiadiazol-2-yl)amino]carbonyl]-L-(4-nitrophenyl)alanine methyl ester]	1.87
CNC(=O)[C@H](Cc1ccc(C(C)(C)C)cc1)NC(=O)Nc1n[nH]c(=S)s1 [Example 81, α-[[[(4,5-dihydro-5-thioxo-1,3,4-thiadiazol-2-yl)amino]carbonyl]amino]-4-(1,1-dimethylethyl)-N-methyl-(S)-benzenepropanamide]	1.82

SMILES	Ki [µM]
COC(=O)[C@H](CSCc1ccc(C)cc1)NC(=O)Nc1n[nH]c(=S)s1 [Example 65, N-[[(4,5-Dihydro-5-thioxo-1,3,4-thiadiazol-2-yl)amino]carbonyl]-S-[(4-methylphenyl)methyl]-L-cysteine methyl ester]	2.55
O=C(Nc1n[nH]c(=S)s1)N[C@@H](Cc1ccccc1)C(=O)NCc1ccc(C(F)(F)F)cc1 [Example 52, α-[[[(4,5-Dihydro-5-thioxo-1,3,4-thiadiazol-2-yl)amino]carbonyl]-amino]-N-[(4-trifluoromethylphenyl)methyl]-(S)-benzenepropanamide]	0.75
COC(=O)[C@H](Cc1ccc(OC)cc1)NC(=O)Nc1n[nH]c(=S)s1 [Example 30, N-[[(4,5-Dihydro-5-thioxo-1,3,4-thiadiazol-2-yl)amino]carbonyl]-O-methyl-L-tyrosine methyl ester]	2.75
CNC(=O)C(Cc1ccc(Br)cc1)NC(=O)Nc1n[nH]c(=S)s1 (stereo not drawn) [Example 20, α-[[[(4,5-Dihydro-5-thioxo-1,3,4-thiadiazol-2-yl)amino]carbonyl]-amino]-N-methyl-4-bromobenzene-propanamide]	0.8
O=C(Nc1n[nH]c(=S)s1)N[C@@H](Cc1ccccc1)C(=O)NCc1cccc2ccccc12 [Example 58, α-[[[(4,5-Dihydro-5-thioxo-1,3,4-thiadiazol-2-yl)amino]carbonyl]amino)-N-(1-naphthylmethyl)-(S)-benzenepropanamide]	0.8
CNC(=O)[C@H](CSCc1ccc(C)cc1)NC(=O)Nc1n[nH]c(=S)s1 [Example 70, 2-[[[(4,5-Dihydro-5-thioxo-1,3,4-thiadiazol-2-yl)amino]-carbonyl]amino]-N-methyl-3-[[(4-methylphenyl)methyl]thio]-(R)-propanamide]	1.2
O=C(Nc1n[nH]c(=S)s1)N[C@@H](Cc1ccccc1)C(=O)NCc1ccncc1 [Example 17, α-[[[(4,5-Dihydro-5-thioxo-1,3,4-thiadiazol-2-yl)amino]-carbonyl]amino]-N-(4-pyridinylmethyl)-(S)-benzenepropanamide]	1.27
CNC(=O)[C@H](CO[Si](C)(C)C(C)(C)C)NC(=O)Nc1n[nH]c(=S)s1 [Example 46, 2-[[[(4,5-Dihydro-5-thioxo-1,3,4-thiadiazol-2-yl)amino]carbonyl]amino]-3-[(1,1-dimethylethyl)-dimethylsilyloxy]-N-methyl-(S)-propanamide]	0.75
COC(=O)[C@H](CSCc1ccccc1)NC(=O)Nc1n[nH]c(=S)s1 [Example 71, N-[[(4,5-Dihydro-5-thioxo-1,3,4-thiadiazol-2-yl)amino]carbonyl]-S-(phenylmethyl)-L-cysteine methyl ester]	2.51
CNC(=O)[C@H](COC(C)(C)C)NC(=O)Nc1n[nH]c(=S)s1 [Example 73, 2-[[[(4,5-Dihydro-5-thioxo-1,3,4-thiadiazol-2-yl)amino]carbonyl]-amino]-3-(1,1-dimethylethoxy)-N-methyl-(S)-propanamide]	1.6
COC(=O)[C@H](CSCc1ccc(OC)cc1)NC(=O)Nc1n[nH]c(=S)s1 [Example 68, N-[[(4,5-Dihydro-5-thioxo-1,3,4-thiadiazol-2-yl)amino]carbonyl]-S-[(4-methoxyphenyl)methyl]-L-cysteine methyl ester]	2.05
O=C(Nc1n[nH]c(=S)s1)N[C@@H](Cc1ccccc1)C(=O)NCCN1CCOCC1 [Example 19, α-[[[(4,5-Dihydro-5-thioxo-1,3,4-thiadiazol-2-yl)amino]carbonyl]-amino]-N-[2-(4-morpholinyl)ethyl]-(S)-benzenepropanamide]	1.99
O=C(Nc1n[nH]c(=S)s1)N[C@@H](Cc1ccccc1)C(=O)N1CCNCC1 [Example 56, (S)-1-[2-[[[(4,5-Dihydro-5-thioxo-1,3,4-thiadiazol-2-yl)amino]carbonyl]amino]-1-oxo-3-phenylpropyl]piperazine trifluoroacetate]	5.27
COC(=O)[C@@H](NC(=O)Nc1n[nH]c(=S)s1)c1ccccc1 [Example 24, (S)-N-[[(4,5-Dihydro-5-thioxo-1,3,4-thiadiazol-2-yl)amino]carbonyl]-2-phenylglycine methyl ester]	7.66
COC(=O)[C@@H](NC(=O)Nc1n[nH]c(=S)s1)[C@@H](C)OCc1ccccc1 [Example 64, N-[[(4,5-Dihydro-5-thioxo-1,3,4-thiadiazol-2-yl)amino]carbonyl]-O-(phenylmethyl)-L-threonine methyl ester]	9.56
O=C(Nc1n[nH]c(=S)s1)N[C@@H](Cc1ccccc1)C(=O)NCCCc1ccccc1 [Example 51, α-[[[(4,5-Dihydro-5-thioxo-1,3,4-thiadiazol-2-yl)amino]carbonyl]amino]-N-(3-phenylpropyl)-(S)-benzenepropanamide]	1.02
COC(=O)[C@@H](NC(=O)Nc1n[nH]c(=S)s1)[C@@H](C)OC(C)(C)C [Example 74]	1.87
